Two compounds from ChEMBL document CHEMBL1136391, “Synthesis and activity of a C-8 keto pleuromutilin derivative” (2003) can be followed below.

≈ marks a conversion by molar mass, not a printed value.

Assay type in all cases: functional
The subject of one test is Streptococcus pneumoniae. Briefly: Minimum inhibitory concentration against Streptococcus pneumoniae / Penicillin Resistant.
The next test deals with Haemophilus influenzae. Briefly: Minimum inhibitory concentration against Haemophilus influenzae / Pen+.
The next test relates to Moraxella catarrhalis. Briefly: Minimum inhibitory concentration against Moraxella catarrhalis / Pen+.
For another test, the system named is Staphylococcus aureus. As to the kind of experiment: Minimum inhibitory concentration against Staphylococcus aureus / Homo MR.

`C=C[C@]1(C)C[C@@H](OC(=O)Nc2ccc(OC)cc2)[C@]2(C)C(C)CC[C@]3(CCC(=O)[C@H]32)[C@@H](C)[C@@H]1O` (stereo partly drawn): the MIC in the test with Streptococcus pneumoniae was found to be 0.003 µg/mL (≈ 0.00639 µM); against Haemophilus influenzae, 4 µg/mL (≈ 8.52 µM); with Moraxella catarrhalis, 0.125 µg/mL (≈ 0.266 µM); in the test on Staphylococcus aureus, 0.003 µg/mL (≈ 0.00639 µM).

With `C=C[C@]1(C)C[C@@H](OC(=O)Nc2ccc(OC)cc2)[C@]2(C)C(C)CC(=O)[C@]3(CCC(=O)[C@H]32)[C@@H](C)[C@@H]1O` (stereo partly drawn), the MIC with Streptococcus pneumoniae is 32 µg/mL (≈ 66.2 µM); with Haemophilus influenzae it was 64 µg/mL (≈ 132 µM); in the test on Moraxella catarrhalis it was 64 µg/mL (≈ 132 µM); in the test on Staphylococcus aureus, 32 µg/mL (≈ 66.2 µM).
